The source made the active and inactive calls. The rule behind the calls is not given here.
Tests used:
[1] = Inhibition of Feline immunodeficiency virus Shizuoka envelope glycoprotein gp40 assessed as inhibition of HR1-HR2 interaction after 1.5 hrs by ELISA
[2] = Inhibition of Feline immunodeficiency virus Petaluma envelope glycoprotein gp40 assessed as inhibition of HR1-HR2 interaction after 1.5 hrs by ELISA
[3] = Inhibition of Feline immunodeficiency virus UK8 envelope glycoprotein gp40 assessed as inhibition of HR1-HR2 interaction after 1.5 hrs by ELISA
[4] = Inhibition of Feline immunodeficiency virus Sendai-1 envelope glycoprotein gp40 assessed as inhibition of HR1-HR2 interaction after 1.5 hrs by ELISA
[5] = test system: MT4; experiment: Inhibition of Feline immunodeficiency virus envelope glycoprotein 40-mediated cell fusion between virus-transfected feline thymic lymphoma 3201 cells and human MT4 cells at 10 uM after 7 days; type: cell-based

Row | Compound | IC50 [1] | IC50 [2] | IC50 [3] | IC50 [4] | Activity [5]
1 | H-LEEWYKKTEELQKKFEEIIKKIEENSKKGEEGIKK-OH | 203 nM | 200 nM | 443 nM | 42.4 nM | –
2 | CC[C@H](C)[C@H](NC(=O)CNC(=O)[C@H](CCC(=O)O)NC(=O)[C@H](CCC(=O)O)NC(=O)CNC(=O)[C@H](CCCCN)NC(=O)[C@H](CCCCN)NC(=O)[C@H](CC(N)=O)NC(=O)[C@H](CC(N)=O)NC(=O)[C@H](CCC(=O)O)NC(=O)[C@H](CCC(=O)O)NC(=O)[C@@H](NC(=O)[C@H](CCCCN)NC(=O)[C@H](CCCCN)NC(=O)[C@@H](NC(=O)[C@@H](NC(=O)[C@H](CCC(=O)O)NC(=O)[C@H](CCC(=O)O)NC(=O)[C@H](Cc1ccccc1)NC(=O)[C@H](CCCCN)NC(=O)[C@H](CCCCN)NC(=O)[C@H](CCC(N)=O)NC(=O)[C@H](CC(C)C)NC(=O)[C@H](CCC(=O)O)NC(=O)[C@H](CCC(=O)O)NC(=O)[C@@H](NC(=O)[C@H](CCCCN)NC(=O)[C@H](CCCCN)NC(=O)[C@H](Cc1ccc(O)cc1)NC(=O)[C@H](Cc1c[nH]c2ccccc12)NC(=O)[C@H](CCC(=O)O)NC(=O)[C@H](CCC(=O)O)NC(=O)[C@@H](N)CC(C)C)[C@@H](C)O)[C@@H](C)CC)[C@@H](C)CC)[C@@H](C)CC)C(=O)N[C@@H](CCCCN)C(=O)N[C@@H](CCCCN)C(=O)O | 78.5 nM | 51.6 nM | 9.33 nM | 8.87 nM | Active
3 | H-NEELGKKYEETKKKQEEFYKKIEEIEKKNEEVKKKLEELQKK-OH | – | 169 nM | – | – | –
4 | H-LEEWYKKTEELQKKFEEIIKKIEENNKKVEEGLKK-OH | 115 nM | 16.6 nM | 5.39 nM | 22.6 nM | –
5 | H-LGEWYNQTKGLQQKFYEIIMDIEQNSVQGKKGIQQ-OH | > 10000 nM | 2400 nM | > 10000 nM | 437 nM | –
6 | H-GEETLKKWEEQTKKLEEKFKKIEENIKKNEEQVKKGEEQLKK-OH | – | > 10000 nM | – | – | –
7 | H-LGEWYNQTKDLQQKFYEIIMDIEQNNVQGKKGIQQ-OH | 6310 nM | 1260 nM | 513 nM | 183 nM | Active
8 | H-LGEWYNQTKELQQKFYEIIMNIEQNNVQVKKGLQQ-OH | 6310 nM | 708 nM | 724 nM | 646 nM | –
9 | H-LEEWYKKTEELQKKFEEIIKKIEENNKKGEEGLKK-OH | 19.7 nM | 12.8 nM | 3.38 nM | 2.53 nM | –
10 | H-LRDWYNNTQQLQKKFYEIIYDIEQNNVQGKQGLQQ-OH | 2510 nM | 195 nM | 182 nM | 37.2 nM | –
11 | H-WEEWDKKIEEYTKKIEELIKKSEEQQKKNEEELKK-OH | – | > 10000 nM | – | – | –
